According to patent publication US8304422B2, “Compositions and methods for inhibition of the JAK pathway” (Rigel Pharmaceuticals, Inc., priority 2007, dated 2012):

test system: BaF3 V617F cells; UKE-1; assay: Proliferation Assay (Cell Titer-Glo; Example 7); format: cell-based; conditions: proliferation 72 hours, inhibit JAK2 activity, cell line (BaF3 V617F or UKE-1) not stated
Outline: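 BaF3 V617F cells (RPMI, 10% FBS) and UKE-1 cells (Iscove's DMEM, 10% FBS, 10% equine serum, 1 uM hydrocortisone) were exposed to 3-fold serially diluted compound in duplicate for 72 hours at 37 °C. Viable cell number quantified by Cell Titer-Glo luminescence; IC50 reported.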

Row | IC50 | Compound
1 | 1610 nM | Cc1cnc(Nc2cc(C)c(C)c(C)c2)nc1Nc1ccc2c(c1)S(=O)(=O)NCC2 [VII-8, 5-Methyl-N4-[3,4-dihydro-1,1-dioxide-2H-1,2-benzothiazin-7-yl]-N2-[3,4,5-trimethylphenyl]-2,4-pyrimidinediamine]
2 | 167 nM | CCOc1cc(Nc2ncc(Cl)c(Nc3ccc(CNS(=O)(=O)C4CC4)cc3)n2)cc(OC)c1OC [II-210, 5-Chloro-N4-[4-(N-cyclopropylsulfonylamino)methylphenyl]-N2-[3,4-dimethoxy-5-ethoxyphenyl]-2,4-pyrimidinediamine]
3 | 142 nM | CCOc1c(C)cc(Nc2ncc(Cl)c(Nc3ccc(CNS(N)(=O)=O)cc3)n2)cc1C [II-147, N4-[4-(Aminosulfonylamino)methylphenyl]-5-chloro-N2-(3,5-Dimethyl-4-ethoxyphenyl)-2,4-pyrimidinediamine]
4 | 1640 nM | COc1cc(Nc2ncc(C)c(Nc3ccc4c(c3)C(NS(=O)(=O)C3CC3)CC4)n2)cc(OC)c1OC (racemic) [V-3]
5 | 215 nM | COc1cc(Nc2ncc(Cl)c(Nc3ccc(CNS(=O)(=O)NC4CC4)cc3C)n2)cc(C)c1OC [II-179, 5-Chloro-N2-(3,4-dimethoxy-5-methylphenyl)-N4-[2-methyl-4-((N-cyclopropylamino)sulfonylamino)methylphenyl]-2,4-pyrimidinediamine]
6 | 733 nM | O=S(=O)(NCc1ccc(Nc2nc(Nc3ccc(CN4CCOCC4)cc3)ncc2Cl)cc1)C1CC1 [II-223, 5-Chloro-N4-[4-(N-cyclopropylsulfonylamino)methylphenyl]-N2-[4-(1-morpholinomethyl)phenyl]-2,4-pyrimidinediamine]
7 | 209 nM | CCNS(=O)(=O)NCc1cccc(Nc2nc(Nc3cc(C)c(OC)c(C)c3)ncc2C)c1 [II-133, N2-(3,5-Dimethyl-4-methoxyphenyl)-N4-[(3-(ethylamino)sulfonylamino)methylphenyl]-5-methyl-2,4-pyrimidinediamine]
8 | 229 nM | COc1c(C)cc(Nc2ncc(Cl)c(Nc3ccc4c(c3)S(=O)(=O)NCC4)n2)cc1C [VII-1, 5-Chloro-N4-[3,4-dihydro-1,1-dioxide-2H-1,2-benzothiazin-7-yl]-N2-[3,5-dimethyl-4-methoxyphenyl]-2,4-pyrimidinediamine]
9 | 755 nM | Cc1cc(Nc2ncc(C(F)(F)F)c(Nc3ccc(CNS(=O)(=O)C4CC4)cc3)n2)ccc1N1CCN(C)CC1 [II-128, N4-[4-(N-Cyclopropylsulfonylamino)methylphenyl]-N2-[3-methyl-4-(4-methyl-1-piperazinyl)phenyl]-5-trifluoromethyl-2,4-pyrimidinediamine]
10 | 180 nM | COc1cc(Nc2ncc(F)c(Nc3ccc(CNS(=O)(=O)C4CC4)cc3)n2)cc(C)c1OC [II-195, 5-Fluoro-N4-[4-(N-cyclopropylsulfonylamino)methylphenyl]-N2-[3,4-dimethoxy-5-methylphenyl]-2,4-pyrimidinediamine]
11 | 2050 nM | Cc1cc(Nc2ncc(Cl)c(Nc3ccc(CNS(=O)(=O)NC4CC4)cc3)n2)ccc1N1CCN(C)CC1 [II-168, 5-Chloro-N4-[4-((N-cyclopropylamino)sulfonylamino)methylphenyl]-N2-[3-methyl-4-(4-methyl-1-piperazinyl)phenyl]-2,4-pyrimidinediamine]
12 | 2690 nM | Cc1cnc(Nc2ccc(N3CCN(C)CC3)cc2)nc1Nc1ccc2c(c1)[C@H](NS(C)(=O)=O)CC2 [V-14, (1R)-5-Methyl-N2-[4-(4-methyl-1-piperazinyl)phenyl]-N4-[1-(methylsulfonyl)aminoindan-6-yl]-2,4-pyrimidinediamine]
13 | 1300 nM | O=S(=O)(NCc1ccc(Nc2nc(Nc3ccc(-c4cccnc4)cc3)ncc2Cl)cc1)C1CC1 [II-193, 5-Chloro-N4-[4-(N-cyclopropylsulfonylamino)methylphenyl]-N2-[4-(3-pyridinyl)phenyl]-2,4-pyrimidinediamine]
14 | 1560 nM | Cc1cnc(Nc2ccc(N3CCN(S(C)(=O)=O)CC3)cc2)nc1Nc1ccc(CNS(=O)(=O)C2CC2)cc1 [II-206]
15 | 549 nM | CCNS(=O)(=O)NCc1ccc(Nc2nc(Nc3ccc(N4CCN(C)CC4)cc3)ncc2Cl)c(C)c1 [II-144, 5-Chloro-N4-[2-methyl-4-(ethylaminosulfonylamino)methylphenyl]-N2-[4-(4-methyl-1-piperazinyl)phenyl]-2,4-pyrimidinediamine]
16 | 643 nM | Cc1cc(CNS(=O)(=O)NC2CC2)ccc1Nc1nc(Nc2cc(C)c(OC(C)C)c(C)c2)ncc1Cl [II-177, 5-Chloro-N2-(3,5-dimethyl-4-(1-methylethoxy)phenyl)-N4-[2-methyl-4-((N-cyclopropylamino)sulfonylamino)methylphenyl]-2,4-pyrimidinediamine]
17 | 83.1 nM | CCOc1c(C)cc(Nc2ncc(Cl)c(Nc3ccc(CNS(=O)(=O)NC4CC4)cc3)n2)cc1C [II-155, 5-Chloro-N4-[4-((N-cyclopropylamino)sulfonylamino)methylphenyl]-N2-(3,5-dimethyl-4-ethoxyphenyl)-2,4-pyrimidinediamine]
18 | 205 nM | CN1CCN(c2ccc(Nc3ncc(Cl)c(Nc4ccc(CNS(=O)(=O)NC5CC5)cc4)n3)cc2)CC1 [II-167, 5-Chloro-N4-[4-((N-cyclopropylamino)sulfonylamino)methylphenyl]-N2-[4-(4-methyl-1-piperazinyl)phenyl]-2,4-pyrimidinediamine]
19 | 307 nM | COc1c(C)cc(Nc2ncc(Cl)c(Nc3ccc(CNS(=O)(=O)C4CC4)cc3C)n2)cc1C [II-150, 5-Chloro-N2-(3,5-dimethyl-4-methoxyphenyl)-N4-[2-methyl-4-(N-cyclopropylsulfonylamino)methylphenyl]-2,4-pyrimidinediamine]

The remaining lines, values behind:

Row | Compound | IC50
20 | COc1cc(Nc2ncc(Cl)c(Nc3cccc(S(=O)(=O)NC(C)(C)C)c3)n2)cc(OC)c1OC [I-15, 5-Chloro-N4-[3-(N-tert-butylsulfonyl)phenyl]-N2-[3,4,5-trimethoxyphenyl]-2,4-pyrimidinediamine] | 225 nM
21 | Cc1cnc(Nc2ccc(N3CCN(S(C)(=O)=O)CC3)cc2C(F)(F)F)nc1Nc1ccc(CCNS(=O)(=O)C2CC2)cc1 [II-72] | 18300 nM
22 | Cc1cc(CNS(=O)(=O)C2CC2)cc(Nc2nc(Nc3ccc(N4CCN(C5CC6CCC5C6)CC4)cc3)ncc2Cl)c1 (centres unmarked) [II-76, N-(3-(2-(4-(4-(bicyclo[2.2.1]heptan-2-yl)piperazin-1-yl)phenylamino)-5-chloropyrimidin-4-ylamino)-5-methylbenzyl)cyclopropanesulfonamide] | 1310 nM
23 | 5-Chloro-N4[4-(N-cyclopropylsulfonylamino)ethylphenyl]-N2-[4-(6-methoxy-2-methyl-methoxy)phenyl]-2,4-pyrimidinediamine [II-50] | 472 nM
24 | 5-Chloro-N4-[4-[N-cyclopropylsulfonyl)-N′-(3-(4-morpholine)propion-1-yl)amino]methylphenyl]-N2-(3,5-dimethyl-4-methoxyphenyl)-2,4-pyrimidinediamine [II-141] | 73.9 nM
25 | CCCN1CCN(c2ccc(Nc3ncc(Cl)c(Nc4ccc(CCNS(=O)(=O)C5CC5)cc4)n3)c(C(F)(F)F)c2)CC1 [II-54, 5-Chloro-N4[4-(N-cyclopropylsulfonylamino)ethylphenyl]-N2-[4-(4-propylpiperazino)-2-trifluoromethylphenyl]-2,4-pyrimidinediamine] | 1970 nM
26 | CCc1cnc(Nc2cc(C)c(OC)c(OC)c2)nc1Nc1ccc(CNS(=O)(=O)C2CC2)cc1 [II-82, N4-[4-(N-Cyclopropylsulfonylamino)methylphenyl]-N2-(3,4-dimethoxy-5-methylphenyl)-5-ethyl-2,4-pyrimidinediamine] | 797 nM
27 | CCc1cnc(Nc2ccc(N3CCN(CC)CC3)cc2)nc1Nc1ccc(CNS(=O)(=O)C2CC2)cc1 [II-89, N4-[4-(N-Cyclopropylsulfonylamino)methylphenyl]-5-ethyl-N2-[4-(4-ethyl-1-piperazinyl)phenyl]-2,4-pyrimidinediamine] | 674 nM
28 | COc1c(C)cc(Nc2ncc(Cl)c(Nc3ccc(CNS(=O)(=O)N(C)C)cc3)n2)cc1Cl [II-93, 5-Chloro-N2-(3-chloro-4-methoxy-5-methylphenyl)-N4-[(4-(dimethylamino)sulfonylamino)methylphenyl]-2,4-pyrimidinediamine] | 350 nM
29 | Cc1cnc(Nc2ccc(C3CCN(C)CC3)cc2)nc1Nc1ccc(CNS(=O)(=O)N(C)C)cc1 [II-106, N4-[(4-(Dimethylamino)sulfonylamino)methylphenyl]-5-methyl-N2-[4-(1-methyl-4-piperidinyl)pheny]-2,4-pyrimidinediamine] | 383 nM
30 | CN1CCN(c2ccncc2Nc2ncc(Cl)c(Nc3ccc(CNS(=O)(=O)C4CC4)cc3)n2)CC1 [II-216, 5-Chloro-N4-[4-(N-cyclopropylsulfonylamino)methylphenyl]-N2-[4-(N-methylpiperizin-4-yl)pyridine-3-yl]-2,4-pyrimidinediamine] | 246 nM
31 | 5-Chloro-N4-[4-(N-cyclopropyl-N-acetylsulfonylamino)methylphenyl]-N2-[3,4-dimethyl-5-methoxyphenyl]-2,4-pyrimidinediamine [II-217] | 233 nM
32 | CCNS(=O)(=O)NCc1ccc(Nc2nc(Nc3cc(Cl)c(OC)c(Cl)c3)ncc2C)cc1 [II-119, N2-[3,5-Dichloro-4-methoxyphenyl]-N4-[(4-(ethylamino)sulfonylamino)methylphenyl]-5-methyl-2,4-pyrimidinediamine] | 1360 nM
33 | CCNS(=O)(=O)NCc1ccc(Nc2nc(Nc3ccc(N4CCN(CC)CC4)cc3)ncc2C)cc1 [II-125, N4-[(4-(ethylamino)sulfonylamino)methylphenyl]-N2-[4-(4-ethyl-1-piperazinyl)phenyl]-5-methyl-2,4-pyrimidinediamine] | 512 nM
34 | CCOc1cc(C)c(Nc2ncc(C)c(Nc3ccc(CCNS(=O)(=O)C4CC4)cc3)n2)c(C)c1 [II-63] | 530 nM
35 | 5-Chloro-N4-[(4-(dimethylamino)sulfonylamino)methylphenyl]-N2-[3,4,5-trimethoxyphenyl)-2,4-pyrimidinediamine [II-95] | 250 nM
